Source: the OligoGym collection
Values joined by “and” are separate entries in the source; they are usually repeats but may differ in a detail not shown here. Equal entries are not always repeated. After the bases stand the sugars from the 5' end (letter, count) and the backbone: PS all phosphorothioate, else s phosphorothioate and o phosphodiester by linkage. HELM strings list units from the 5' end as sugar, base in round brackets, then linkage (d deoxyribose, r ribose, m 2'-O-methyl, p phosphodiester). Methylation of C is not given here. [moe] = 2'-O-(2-methoxyethyl) (MOE); [sp] = phosphorothioate linkage; e = 2'-O-(2-methoxyethyl) (MOE); k = constrained ethyl (cEt); d = 2'-deoxy (DNA)

How the values were obtained:
[1] = biological target: IRF5; details: ASO
[2] = biological target: HBV; details: ASO

| Substance | target mRNA inhibition ([1]; KARPAS-229, 4 µM) | further results |
| --- | --- | --- |
| TATCTCCGTCCTGGCT (sugars kddddddddddkekek, PS) | 0% | – |
| TCTGATATGATACCTA (sugars k3 d2 k1 d7 k3, PS) | – | target mRNA inhibition ([1]; A-431, 0.00412 µM): 4%; target mRNA inhibition ([1]; A-431, 0.01225 µM): 8%; target mRNA inhibition ([1]; A-431, 0.03704 µM): 36%; target mRNA inhibition ([1]; A-431, 0.11111 µM): 54%; target mRNA inhibition ([1]; A-431, 0.33333 µM): 69%; target mRNA inhibition ([1]; A-431, 1 µM): 74% |
| TATTTCTGCTCCAGGT (sugars kkdddddddddkekek, PS) | 5% | – |
| GCTGTCACATCTCCAC (sugars k3 d9 k3 e1, PS) | 23% | – |
| TGCACTGACACAGGCG (sugars kkddddddddkekekk, PS) | 0% | – |
| GCTTGGTCTTGACCTC (sugars kkkddddddddkekek, PS) | 0% | – |
| CTTTTTGCTCTAAACC (sugars k3 d10 k3, PS) | 0% | – |
| TTCTGCAGGGAGTCAG (sugars kdddddddddkekeke, PS) | 0% | – |
| GTCTTGACCTCCCGCT (sugars kkddddddddddkeke, PS) | 65% and 69% | target mRNA inhibition ([1]; KARPAS-229, 0.44444 µM): 38%; target mRNA inhibition ([1]; KARPAS-229, 1.33333 µM): 47%; target mRNA inhibition ([1]; KARPAS-229, 12 µM): 78% |
| CACTGACACAGGCGGA (sugars kdddddddddkekeke, PS) | 0% | – |
| GGTCTTGACCTCCCGC (sugars kekdddddddddeekk, PS) | 33% | – |
| AGATGGTGTTATCTCC (sugars kdddddddddkekeke, PS) | 0% | – |
| TGCAACATCCATCAAT (sugars k3 d10 k2 d1, PS) | 0% | – |
| AGGAGTGAGACGAGCA (sugars kdddddddddkekeke, PS) | 0% | – |
| ACATCTCCACATCAGT (sugars kkkddddddddkekek, PS) | 14% | – |
| TTATTTCTGCTCCAGG (sugars k3 d9 k3 e1, PS) | 28% | – |
| CTGATATGATACCTAA (sugars k3 d10 k3, PS) | 59% and 76% | target mRNA inhibition ([1]; A-431, 0.00412 µM): 13%; target mRNA inhibition ([1]; A-431, 0.01225 µM): 29%; target mRNA inhibition ([1]; A-431, 0.03704 µM): 54%; target mRNA inhibition ([1]; A-431, 0.11111 µM): 80%; target mRNA inhibition ([1]; A-431, 0.33333 µM): 88%; target mRNA inhibition ([1]; A-431, 1 µM): 90%; target mRNA inhibition ([1]; KARPAS-229, 0.44444 µM): 42%; target mRNA inhibition ([1]; KARPAS-229, 1.33333 µM): 45%; target mRNA inhibition ([1]; KARPAS-229, 12 µM): 77% |
| GGTCTGGCCCTTTTGG (sugars k3 d10 k3, PS) | 16% | – |
| TGAGTCATGGGCTGAG (sugars kkdddddddddkekek, PS) | 0% | – |
| GTCTTTGAGGTCTGGG (sugars kkddddddddkekekk, PS) | 34% | – |
| ACTGACACAGGCGGAT (sugars kkdddddddddkekek, PS) | 0% | – |

| Substance | target mRNA inhibition ([1]; KARPAS-229, 4 µM) | further results |
| --- | --- | --- |
| TGAGTCTCAAACCAGG (sugars kkdddddddddkdkdk, PS) | 0% | – |
| TGAGTCATGGGCTGAG (sugars kkddddddddkekekk, PS) | 0% | – |
| ATCACCACTGTGTACC (sugars kkkdddddddddkeke, PS) | 0% | – |
| CATTCCATATACACAC (sugars kkddddddddkekekk, PS) | 17% | – |
| ATCACCACTGTGTACC (sugars kddddddddddkekek, PS) | 0% | – |
| CAATGCAACATCCATC (sugars kdddddddddkekeke, PS) | 0% | – |
| TCAGCTTTCTTGTCTA (sugars k3 d10 k3, PS) | 15% | – |
| GCTGTCACATCTCCAC (sugars kkdddddddddkekek, PS) | 5% | – |
| GAGTCATGGGCTGAGG (sugars k3 d9 k3 e1, PS) | 0% | – |
| CTTGGTCTTGACCTCC (sugars k2 d9 e3 k2, PS) | 11% | – |
| TTGCCTTCTGCAGGGA (sugars k3 d10 k3, PS) | 0% | – |
| ATAGGAGTGAGACGAG (sugars k3 d10 k3, PS) | 16% | – |
| GCCTTCTGCAGGGAGT (sugars k3 d10 k3, PS) | 0% | – |
| CTGATATGATACCTAA (sugars k3 d2 k1 d7 k3, PS) | – | target mRNA inhibition ([1]; A-431, 0.00412 µM): 18%; target mRNA inhibition ([1]; A-431, 0.01225 µM): 23%; target mRNA inhibition ([1]; A-431, 0.03704 µM): 41%; target mRNA inhibition ([1]; A-431, 0.11111 µM): 63%; target mRNA inhibition ([1]; A-431, 0.33333 µM): 80%; target mRNA inhibition ([1]; A-431, 1 µM): 75% |
| CTTCTGCAGGGAGTCA (sugars kkdddddddddkekek, PS) | 0% | – |
| ACATCTCCACATCAGT (sugars k2 d9 e3 k2, PS) | 41% | – |
| TCACCACTGTGTACCC (sugars k3 d9 k3 e1, PS) | 21% | – |
| GCATTCCATATACACA (sugars kddddddddddkekek, PS) | 39% | – |
| GCTTGGTCTTGACCTC (sugars k3 d9 k3 e1, PS) | 29% | – |
| AGGTTCTTGGACTCTC (sugars kkkdddddddddkeke, PS) | 0% | – |
| GAGTGAGACGAGCAAA (sugars kkddddddddkekekk, PS) | 17% | – |

| Substance | target mRNA inhibition ([1]; KARPAS-229, 4 µM) | further results |
| --- | --- | --- |
| TGAGTCATGGAGCTGAG (sugars kdddddddddkekeked, PS) | 0% | – |
| GTTCTTGGACTCTCAA (sugars kddddddddddkekek, PS) | 35% | – |
| CATTCCATATACACAC (sugars k2 d9 e3 k2, PS) | 21% | – |
| ATGGTGTTATCTCCGT (sugars kddddddddddkekek, PS) | 0% | – |
| CAATTTTGCATTCCAT (sugars kddddddddddkekek, PS) | 21% | – |
| ACTGACACAGGCGGAT (sugars k2 d9 e3 k2, PS) | 0% | – |
| TTGTCTAGTGTCATGG (sugars kkddddddddddkeke, PS) | 38% | – |
| ACCACTGTGTACCCCA (sugars kkddddddddkekekk, PS) | 15% | – |
| GTCTTGACCTCCCGCT (sugars k3 d9 k3 e1, PS) | 51% | – |
| ATGAGTCATGGGCTGA (sugars kdddddddddkekeke, PS) | 7% | – |
| ATCACCACTGTGTACC (sugars kekdddddddddeekk, PS) | 0% | – |
| CAGGTTCTTGGACTCT (sugars kdddddddddkekeke, PS) | 0% | – |
| CCAATGCAACATCCAT (sugars k3 d9 k3 e1, PS) | 16% | – |
| ACTGTATTACCTATAC (sugars k3 d10 k3, PS) | 22% | – |
| TCACCACTGTGTACCC (sugars kkddddddddddkeke, PS) | 0% | – |
| CATTCCATATACACAC (sugars kekdddddddddeekk, PS) | 24% | – |
| AGGAAGTGAGTCTCAA (sugars kddddddddddkekek, PS) | 11% | – |
| RNA1{[moe](C)[sp].[moe](C)[sp].[moe](G)[sp].[moe](C)[sp].[moe](A)[sp].d(G)[sp].d(T)[sp].d(A)[sp].d(T)[sp].d(G)[sp].d(G)[sp].d(A)[sp].d(T)[sp].d(C)[sp].[moe](G)[sp].[moe](G)[sp].[moe](C)}$$$$V2.0 | – | target mRNA inhibition ([2]; HepG2, 0.0092593 µM): 5%; target mRNA inhibition ([2]; HepG2, 0.0277778 µM): 38%; target mRNA inhibition ([2]; HepG2, 0.07 µM): 86% and 76%; target mRNA inhibition ([2]; HepG2, 0.0833333 µM): 65%; target mRNA inhibition ([2]; HepG2, 0.25 µM): 86% |
| RNA1{[moe](C)[sp].[moe](C)[sp].[moe](G)[sp].[moe](C)[sp].d(A)[sp].d(G)[sp].d(T)[sp].d(A)[sp].d(T)[sp].d(G)[sp].d(G)[sp].d(A)[sp].d(T)[sp].[moe](C)[sp].[moe](G)[sp].[moe](G)[sp].[moe](C)}$$$$V2.0 | – | target mRNA inhibition ([2]; HepG2, 0.0092593 µM): 0%; target mRNA inhibition ([2]; HepG2, 0.0277778 µM): 38%; target mRNA inhibition ([2]; HepG2, 0.07 µM): 87% and 74%; target mRNA inhibition ([2]; HepG2, 0.0833333 µM): 69%; target mRNA inhibition ([2]; HepG2, 0.25 µM): 86% |
